“And” between values parts separate entries of the source, which are not always exact repeats. Equal values may be shown once.
Legend:
CDK5/p35(h) = CDK5/p35(h) (Homo sapiens, UniProt Q00535); test: Kinase selectivity panel (residual activity at 1 μM); assay type: biochemical; settings: inhibitor at 1 μM; read-out: residual kinase activity in % of maximal activity
SGK(h) = SGK(h) (Homo sapiens, UniProt O00141); test: as above; assay type: biochemical; settings: inhibitor at 1 μM; read-out: residual kinase activity in % of maximal activity
Sequence of SGK(h) (O00141 whole entry): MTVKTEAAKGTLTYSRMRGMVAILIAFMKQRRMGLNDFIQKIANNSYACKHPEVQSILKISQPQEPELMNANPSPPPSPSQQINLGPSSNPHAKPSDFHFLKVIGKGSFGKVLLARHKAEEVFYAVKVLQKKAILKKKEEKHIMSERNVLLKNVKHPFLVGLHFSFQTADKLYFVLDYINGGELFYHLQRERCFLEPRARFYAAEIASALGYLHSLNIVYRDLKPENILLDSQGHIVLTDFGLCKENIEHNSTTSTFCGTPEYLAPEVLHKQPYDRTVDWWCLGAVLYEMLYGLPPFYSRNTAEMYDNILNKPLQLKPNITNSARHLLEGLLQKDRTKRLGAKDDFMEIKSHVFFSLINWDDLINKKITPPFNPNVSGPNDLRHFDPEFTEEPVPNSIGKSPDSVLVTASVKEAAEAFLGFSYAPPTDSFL

[1] = system: CA3–CA1 Schaffer collateral pathway LTP; test: LTP at CA3–CA1 synapse, field recordings in acute hippocampal slices of WT mice; assay type: cell-based, mouse; settings: for LTP quantification (fEPSP slope, last 10 min post-HFS, normalized to baseline): 15 min before HFS to 5 min after
[2] = molecular target: GFP–CaMKII WT / mCh-GluN2B-c tail in HEK293 cells (Homo sapiens, UniProt Q9UQM7); test: Ionomycin-induced colocalization of GFP–CaMKII WT and mCherry-2BC in HEK293 cells; assay type: cell-based; settings: 10 μM AS283
Description: HEK cells were grown and transfected with expression vectors for GFP–CaMKII mutants and pDisplay-mCh-GluN2B-c tail (2BC) as previously described[24],[57]; the GluN2B construct used included an S1303A mutation to avoid potential complications by differential phosphorylation of this regulatory site[13],[27] in the different conditions with or without kinase inhibitors. GFP–CaMKII colocalization with GluN2B in response to a Ca^2+ stimulus induced by 10 μM ionomycin was monitored for 5–10 min at 32 °C in imaging buffer (0.87× Hanks Balanced Salt Solution, 25 mM HEPES, pH 7.4, 2 mM glucose, 2 mM CaCl2, 1 mM MgCl2) by fluorescence microscopy. Images were acquired on a Zeiss Axiovert 200M equipped with a climate control chamber using SlideBook software (Intelligent Imaging Innovations; v.6.0). Colocalization analysis was performed by calculating the Pearson’s correlation (correlation index) with ImageJ of pDisplay-mCh-2BC and GFP–CaMKII within the cytoplasm of HEK cells after background subtraction.

CaMKIIγ(h) = CaMKIIγ(h) (Homo sapiens, UniProt Q13555); test: Kinase selectivity panel (residual activity at 1 μM); assay type: biochemical; settings: inhibitor at 1 μM; read-out: residual kinase activity in % of maximal activity
Sequence of CaMKIIγ(h) (Q13555 whole entry): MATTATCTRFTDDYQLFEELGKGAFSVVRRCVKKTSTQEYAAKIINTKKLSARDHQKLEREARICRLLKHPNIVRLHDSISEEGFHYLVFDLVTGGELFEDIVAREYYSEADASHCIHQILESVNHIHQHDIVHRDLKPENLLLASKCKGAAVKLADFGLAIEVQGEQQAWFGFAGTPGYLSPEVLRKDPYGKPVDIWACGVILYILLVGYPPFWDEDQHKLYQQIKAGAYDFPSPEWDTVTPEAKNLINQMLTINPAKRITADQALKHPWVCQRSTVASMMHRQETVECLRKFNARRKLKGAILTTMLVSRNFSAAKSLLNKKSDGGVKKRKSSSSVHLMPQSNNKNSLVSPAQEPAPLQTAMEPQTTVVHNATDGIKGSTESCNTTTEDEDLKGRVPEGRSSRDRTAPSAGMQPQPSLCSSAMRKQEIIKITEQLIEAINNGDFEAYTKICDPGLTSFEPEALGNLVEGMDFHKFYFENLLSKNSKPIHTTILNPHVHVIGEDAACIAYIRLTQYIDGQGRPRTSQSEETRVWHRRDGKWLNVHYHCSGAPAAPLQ

JAK2(h) = JAK2(h) (Homo sapiens, UniProt O60674); test: as above; assay type: biochemical; settings: inhibitor at 1 μM
Sequence of JAK2(h) (O60674 whole entry): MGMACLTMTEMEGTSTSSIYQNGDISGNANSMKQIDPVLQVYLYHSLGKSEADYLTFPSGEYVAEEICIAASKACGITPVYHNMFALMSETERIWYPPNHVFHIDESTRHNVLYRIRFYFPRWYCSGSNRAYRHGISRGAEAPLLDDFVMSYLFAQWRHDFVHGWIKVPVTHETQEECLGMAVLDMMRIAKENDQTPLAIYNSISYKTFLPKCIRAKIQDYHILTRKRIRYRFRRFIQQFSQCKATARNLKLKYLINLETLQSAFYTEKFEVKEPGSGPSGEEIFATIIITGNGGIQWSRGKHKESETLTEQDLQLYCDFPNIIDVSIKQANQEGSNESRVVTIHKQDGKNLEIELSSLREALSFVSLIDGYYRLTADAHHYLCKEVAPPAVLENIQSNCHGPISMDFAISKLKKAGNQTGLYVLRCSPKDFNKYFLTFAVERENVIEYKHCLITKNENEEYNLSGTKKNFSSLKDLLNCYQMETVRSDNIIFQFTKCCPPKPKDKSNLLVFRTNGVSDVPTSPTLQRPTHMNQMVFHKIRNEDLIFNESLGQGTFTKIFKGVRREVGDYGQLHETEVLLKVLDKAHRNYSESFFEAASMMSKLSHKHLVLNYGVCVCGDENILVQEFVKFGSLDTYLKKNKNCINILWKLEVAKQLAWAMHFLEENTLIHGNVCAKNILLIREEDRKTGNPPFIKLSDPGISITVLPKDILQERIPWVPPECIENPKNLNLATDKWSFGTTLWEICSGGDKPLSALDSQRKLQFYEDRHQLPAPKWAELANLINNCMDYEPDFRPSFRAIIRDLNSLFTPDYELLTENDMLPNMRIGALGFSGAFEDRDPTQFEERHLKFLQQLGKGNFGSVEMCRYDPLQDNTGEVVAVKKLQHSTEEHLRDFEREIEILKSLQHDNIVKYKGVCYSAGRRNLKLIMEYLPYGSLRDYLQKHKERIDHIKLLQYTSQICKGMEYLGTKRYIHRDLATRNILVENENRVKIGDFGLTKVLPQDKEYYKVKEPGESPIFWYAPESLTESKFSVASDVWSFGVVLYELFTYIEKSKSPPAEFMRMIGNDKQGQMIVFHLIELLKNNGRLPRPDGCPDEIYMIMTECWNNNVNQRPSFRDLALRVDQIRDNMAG

[3] = molecular target: PI3 Kinase (p110a/p85a)(h) (Homo sapiens, UniProt P42336); test: as above; assay type: biochemical; settings: inhibitor at 1 μM; read-out: residual kinase activity in % of maximal activity
Sequence of PI3 Kinase (p110a/p85a)(h) (P42336 whole entry): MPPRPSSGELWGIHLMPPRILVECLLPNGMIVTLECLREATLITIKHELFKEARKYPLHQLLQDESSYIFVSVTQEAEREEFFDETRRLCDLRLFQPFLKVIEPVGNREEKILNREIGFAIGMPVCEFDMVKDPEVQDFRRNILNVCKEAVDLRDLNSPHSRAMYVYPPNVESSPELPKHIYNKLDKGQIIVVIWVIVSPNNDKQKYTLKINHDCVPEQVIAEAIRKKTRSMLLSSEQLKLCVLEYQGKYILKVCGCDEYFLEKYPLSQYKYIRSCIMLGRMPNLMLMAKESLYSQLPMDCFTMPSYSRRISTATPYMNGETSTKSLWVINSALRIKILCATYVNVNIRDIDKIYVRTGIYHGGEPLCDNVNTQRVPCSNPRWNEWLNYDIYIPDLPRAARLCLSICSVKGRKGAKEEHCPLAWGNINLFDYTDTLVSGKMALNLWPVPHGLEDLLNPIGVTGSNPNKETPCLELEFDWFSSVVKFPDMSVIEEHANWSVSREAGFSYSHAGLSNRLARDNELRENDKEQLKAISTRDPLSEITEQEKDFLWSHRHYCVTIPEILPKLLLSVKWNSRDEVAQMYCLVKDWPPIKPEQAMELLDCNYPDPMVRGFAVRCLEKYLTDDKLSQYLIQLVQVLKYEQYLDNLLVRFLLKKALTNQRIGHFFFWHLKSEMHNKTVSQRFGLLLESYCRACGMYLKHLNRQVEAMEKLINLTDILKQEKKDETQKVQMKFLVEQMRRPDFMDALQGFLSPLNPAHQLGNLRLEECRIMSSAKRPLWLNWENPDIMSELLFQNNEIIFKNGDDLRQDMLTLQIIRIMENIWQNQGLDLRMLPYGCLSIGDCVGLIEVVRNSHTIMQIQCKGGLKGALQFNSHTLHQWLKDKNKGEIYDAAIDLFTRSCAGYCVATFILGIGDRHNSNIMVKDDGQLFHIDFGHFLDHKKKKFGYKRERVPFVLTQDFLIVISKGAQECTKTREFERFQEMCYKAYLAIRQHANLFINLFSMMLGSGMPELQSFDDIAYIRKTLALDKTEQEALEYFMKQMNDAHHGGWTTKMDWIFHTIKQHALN
Sequence of PI3 Kinase (p110a/p85a)(h) (P27986 whole entry partner): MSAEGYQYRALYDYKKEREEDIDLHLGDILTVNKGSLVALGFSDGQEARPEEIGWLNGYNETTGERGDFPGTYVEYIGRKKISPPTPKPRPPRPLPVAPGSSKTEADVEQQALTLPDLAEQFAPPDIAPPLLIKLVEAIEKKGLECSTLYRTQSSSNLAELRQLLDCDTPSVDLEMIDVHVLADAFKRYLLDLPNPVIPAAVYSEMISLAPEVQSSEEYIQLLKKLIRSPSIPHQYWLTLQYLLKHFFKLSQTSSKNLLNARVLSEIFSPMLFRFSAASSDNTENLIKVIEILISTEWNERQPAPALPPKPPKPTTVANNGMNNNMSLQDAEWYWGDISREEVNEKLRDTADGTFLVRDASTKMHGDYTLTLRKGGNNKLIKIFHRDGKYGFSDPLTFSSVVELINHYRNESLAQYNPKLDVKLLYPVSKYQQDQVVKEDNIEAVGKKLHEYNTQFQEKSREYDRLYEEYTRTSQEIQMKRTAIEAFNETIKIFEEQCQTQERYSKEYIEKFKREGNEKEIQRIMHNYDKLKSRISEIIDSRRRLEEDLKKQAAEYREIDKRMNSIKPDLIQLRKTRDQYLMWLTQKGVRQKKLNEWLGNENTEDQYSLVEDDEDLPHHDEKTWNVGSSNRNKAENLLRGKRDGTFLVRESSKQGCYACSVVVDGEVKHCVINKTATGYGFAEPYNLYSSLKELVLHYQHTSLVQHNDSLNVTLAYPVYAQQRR

IGF-1R(h) = IGF-1R(h) (Homo sapiens, UniProt P08069); test: as above; assay type: biochemical; settings: inhibitor at 1 μM; read-out: residual kinase activity in % of maximal activity

Sequence of CDK5/p35(h) (Q00535 whole entry): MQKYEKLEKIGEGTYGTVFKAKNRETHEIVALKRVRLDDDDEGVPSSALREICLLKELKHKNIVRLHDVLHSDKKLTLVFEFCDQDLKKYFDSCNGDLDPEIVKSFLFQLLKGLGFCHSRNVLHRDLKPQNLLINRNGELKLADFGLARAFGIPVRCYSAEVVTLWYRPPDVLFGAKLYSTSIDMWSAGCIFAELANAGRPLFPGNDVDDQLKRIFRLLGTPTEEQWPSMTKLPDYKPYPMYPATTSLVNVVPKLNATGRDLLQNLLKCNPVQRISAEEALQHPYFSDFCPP
Sequence of CDK5/p35(h) (Q15078 whole entry partner): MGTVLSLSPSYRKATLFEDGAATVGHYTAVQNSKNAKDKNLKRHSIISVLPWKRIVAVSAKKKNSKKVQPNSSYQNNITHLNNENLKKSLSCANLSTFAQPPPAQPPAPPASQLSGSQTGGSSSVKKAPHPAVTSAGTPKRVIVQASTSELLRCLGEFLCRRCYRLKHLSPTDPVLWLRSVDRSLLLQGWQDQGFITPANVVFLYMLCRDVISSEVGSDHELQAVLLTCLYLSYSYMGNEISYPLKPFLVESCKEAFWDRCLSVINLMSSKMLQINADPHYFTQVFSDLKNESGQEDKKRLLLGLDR

NCCNc1cccc(-c2ccnc3[nH]c4ccccc4c23)c1 [AS283]
remaining activity at 1 µM (CDK5/p35(h)): 33%
remaining activity at 1 µM (SGK(h)): 86%
LTP quantification (fEPSP slope, last 10 min post-HFS, normalized to baseline) ([1]; AS283 10uM): 152.979% and 135.393% and 153.277%
fEPSP slope (normalized to baseline) ([1]; AS283 10uM, Time (min) -4): 104.452% and 102.587% and 97.9392%
fEPSP slope (normalized to baseline) ([1]; AS283 10uM, Time (min) -5): 97.455% and 97.2289% and 102.244%
fEPSP slope (normalized to baseline) ([1]; AS283 10uM, Time (min) -6): 99.4541% and 99.1179% and 105.524%
fEPSP slope (normalized to baseline) ([1]; AS283 10uM, Time (min) -7): 101.753% and 102.819% and 102.999%
fEPSP slope (normalized to baseline) ([1]; AS283 10uM, Time (min) -8): 95.5559% and 104.449% and 104.231%
fEPSP slope (normalized to baseline) ([1]; AS283 10uM, Time (min) -9): 92.9571% and 97.0204% and 97.7789%
fEPSP slope (normalized to baseline) ([1]; AS283 10uM, Time (min) -10): 99.8539% and 98.6506% and 100.547%
fEPSP slope (normalized to baseline) ([1]; AS283 10uM, Time (min) -11): 103.952% and 101.834% and 101.778%
fEPSP slope (normalized to baseline) ([1]; AS283 10uM, Time (min) -12): 101.553% and 101.652% and 98.229%
fEPSP slope (normalized to baseline) ([1]; AS283 10uM, Time (min) -13): 102.353% and 99.9177% and 99.6311%
LTP quantification (fEPSP slope, last 10 min post-HFS, normalized to baseline) ([1]; AS283 30uM): 160.389% and 108.532% and 181.434% and 162.892% and 172.846% and 114.329% and 178.329%
fEPSP slope (normalized to baseline) ([1]; AS283 30uM, Time (min) -4): 104.315% and 98.2615% and 101.701% and 97.3586% and 99.2226% and 91.7266% and 101.169%
fEPSP slope (normalized to baseline) ([1]; AS283 30uM, Time (min) -5): 101.784% and 110.1% and 99.6307% and 92.306% and 111.307% and 95.4361% and 105.648%
fEPSP slope (normalized to baseline) ([1]; AS283 30uM, Time (min) -6): 100.097% and 110.1% and 101.96% and 97.1642% and 103.039% and 95.0989% and 110.591%
fEPSP slope (normalized to baseline) ([1]; AS283 30uM, Time (min) -7): 104.877% and 108.522% and 113.432% and 111.35% and 97.9505% and 103.53% and 108.737%
fEPSP slope (normalized to baseline) ([1]; AS283 30uM, Time (min) -8): 104.034% and 98.6561% and 118.004% and 96.7756% and 91.5901% and 101.506% and 110.436%
fEPSP slope (normalized to baseline) ([1]; AS283 30uM, Time (min) -9): 106.283% and 106.154% and 107.653% and 91.3344% and 103.039% and 101.844% and 106.575%
fEPSP slope (normalized to baseline) ([1]; AS283 30uM, Time (min) -10): 103.19% and 102.997% and 101.442% and 97.5529% and 105.583% and 95.4361% and 107.965%
fEPSP slope (normalized to baseline) ([1]; AS283 30uM, Time (min) -11): 100.66% and 97.0777% and 100.58% and 104.937% and 103.675% and 93.0755% and 112.753%
fEPSP slope (normalized to baseline) ([1]; AS283 30uM, Time (min) -12): 100.379% and 102.602% and 99.6307% and 99.8848% and 96.6784% and 98.4712% and 119.858%
fEPSP slope (normalized to baseline) ([1]; AS283 30uM, Time (min) -13): 101.784% and 99.0508% and 93.2474% and 96.5813% and 96.6784% and 98.8084% and 114.606%
effect on LTP induction in WT mice ([1]; AS283 10 or 30 µM): failed to block
effect on CaMKII binding to GluN2B in colocalization assay [2]: did not inhibit
remaining activity at 1 µM (CaMKIIγ(h)): 2%
residual kinase activity in % of maximal activity (JAK2(h)): 121%
remaining activity at 1 µM [3]: 100%
remaining activity at 1 µM (IGF-1R(h)): 110%

Source: paper PMC10482691, “LTP induction by structural rather than enzymatic functions of CaMKII” (Nature, 2023)
